# Laboratory results from US11826429B2, “Pharmaceutical composition comprising brinzolamide” (SENTISS PHARMA PRIVATE LIMITED, priority 2014, dated 2023).
# Columns and labels:
# [1] = pH 6.25; cited from earlier work
# [2] = Solubility studies (supernatant filtered through 0.45 syringe filter and analysed); assay type: physicochemical; details: for Solubility % w/v, No Further addition to the ingredients of Column 2: autoclaved 121° C./30 min, cooled; for Solubility % w/v, Polysorbate 80 (1%) in addition to the composition of Column 2: plus Polysorbate 80 (1%)
# Description: (§1) Purified water was taken in Schott bottle. Brinzolamide was added with continuous stirring. After 30 min its pH was adjusted to 6. It was stirred for 24 hours. After which, the supernatant was filtered with 0.45 µm syringe filter and then its solubility was determined.
# as §1, with “6 and was autoclaved at 121° C./30 min. After autoclaving the sample was cooled to room temperature.” for “6.”
# Purified water is taken in Schott bottle. Soluplus® is added to it while stirring for 10-15 min. Polysorbate 80 is added to it while stirring for 10-20 min. After it has dissolved completely Brinzolamide is added with continuous stirring. After 30 min pH is checked and adjusted to 6 with 0.1 N NaOH. It is autoclaved at 121° C./30 min. After autoclaving the formulation is cooled to room temperature with stirring.
# In order to determine the solubility the sample was centrifuged at 3500 rpm for 5 min followed by filtration through 0.45 µm syringe filter and analysis.
smiles,measurement,setting,value
"CCN[C@H]1CN(CCCOC)S(=O)(=O)c2sc(S(N)(=O)=O)cc21 [brinzolamide, (R)-(+)-4-ethylamino-2-(3-methoxypropyl)-3,4-dihydro-2H-thieno[3,2-e]-1,2-thiazine-6-sulfonamide-1,1-dioxide]",Solubility as per literature,[1],0.059 % w/v
same,Solubility when API is autoclaved and cooled,[2]; pH 6.0,0.082%
same,"Solubility % w/v, No Further addition to the ingredients of Column 2",[2]; pH 6,0.085 % w/v
same,"Solubility % w/v, No Further addition to the ingredients of Column 2","[2]; pH 6, listed as Autoclaved API",0.0822 % w/v
same,"Solubility % w/v, PEG 400 (5%) in addition to the composition of Column 2","[2]; pH 6, autoclaved, plus PEG 400 (5%)",0.0668 % w/v
same,"Solubility % w/v, Polysorbate 80 (1%) in addition to the composition of Column 2","[2]; pH 6, autoclaved",0.2 % w/v
same,"Solubility % w/v, Polysorbate 80 (1%) in addition to the composition of Column 2","[2]; pH 6, autoclaved, listed as Autoclaved API",0.2089 % w/v
same,solubility thermodynamic at 24 h,"[2]; purified water, pH adjusted to 6, aqueous buffer, thermodynamic from solid, pH 6.0, not autoclaved, stirred 24 hours, read-out: Solubility determined in the lab",545 µg/mL
